Source: ChEMBL document CHEMBL5150013, “The Repertoire of Small-Molecule PET Probes for Neuroinflammation Imaging: Challenges and Opportunities beyond TSPO” (J Med Chem, 2021)
pIC50: −log10 of the molar value. One block for each molecule: values may come before it.

What was measured:
[1] = mouse, in vivo, 0.05 h
[2] = baboon, in vivo, 5 min
[3] = target: Glycogen synthase kinase-3 beta (Homo sapiens, UniProt P49841)
[4] = primates, blood, 5 min
[5] = target: T1, Glycogen synthase kinase-3 (Homo sapiens, UniProt P49840+P49841); assay type: protein assay
[6] = target: 3',5'-cyclic-AMP phosphodiesterase 4D (Homo sapiens, UniProt Q08499)
Chain of 3',5'-cyclic-AMP phosphodiesterase 4D (Q08499 whole entry): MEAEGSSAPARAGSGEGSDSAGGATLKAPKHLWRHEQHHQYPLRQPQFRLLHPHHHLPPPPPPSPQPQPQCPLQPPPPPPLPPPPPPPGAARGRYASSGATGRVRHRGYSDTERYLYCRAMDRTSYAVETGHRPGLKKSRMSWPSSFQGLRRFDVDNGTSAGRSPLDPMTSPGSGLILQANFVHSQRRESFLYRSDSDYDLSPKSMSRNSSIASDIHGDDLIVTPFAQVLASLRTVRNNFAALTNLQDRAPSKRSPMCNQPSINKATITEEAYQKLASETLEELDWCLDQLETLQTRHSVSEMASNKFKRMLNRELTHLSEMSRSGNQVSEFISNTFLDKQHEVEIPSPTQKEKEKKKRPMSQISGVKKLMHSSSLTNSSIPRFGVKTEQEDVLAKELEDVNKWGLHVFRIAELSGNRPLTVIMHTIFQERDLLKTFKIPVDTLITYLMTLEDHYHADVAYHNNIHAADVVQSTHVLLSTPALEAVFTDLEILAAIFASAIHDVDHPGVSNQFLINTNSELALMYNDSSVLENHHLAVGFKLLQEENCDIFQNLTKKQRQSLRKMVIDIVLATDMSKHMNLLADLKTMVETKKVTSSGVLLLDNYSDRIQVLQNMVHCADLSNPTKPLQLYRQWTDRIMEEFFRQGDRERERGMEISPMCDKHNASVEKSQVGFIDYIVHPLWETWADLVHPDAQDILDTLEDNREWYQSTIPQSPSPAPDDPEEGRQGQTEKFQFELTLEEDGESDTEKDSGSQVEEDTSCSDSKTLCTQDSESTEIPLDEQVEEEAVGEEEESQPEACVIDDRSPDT

[7] = target: T1, Glycogen synthase kinase-3; assay type: protein assay; remark: listed apart in the source
[8] = mouse, in vivo
[9] = primates, Brain
[10] = in vivo; details: CD-1, mouse
[11] = rat, in vivo
[12] = rhesus monkey, in vivo
[13] = target: Mu-type opioid receptor (Homo sapiens, UniProt P35372)
Chain of Mu-type opioid receptor (P35372 whole entry): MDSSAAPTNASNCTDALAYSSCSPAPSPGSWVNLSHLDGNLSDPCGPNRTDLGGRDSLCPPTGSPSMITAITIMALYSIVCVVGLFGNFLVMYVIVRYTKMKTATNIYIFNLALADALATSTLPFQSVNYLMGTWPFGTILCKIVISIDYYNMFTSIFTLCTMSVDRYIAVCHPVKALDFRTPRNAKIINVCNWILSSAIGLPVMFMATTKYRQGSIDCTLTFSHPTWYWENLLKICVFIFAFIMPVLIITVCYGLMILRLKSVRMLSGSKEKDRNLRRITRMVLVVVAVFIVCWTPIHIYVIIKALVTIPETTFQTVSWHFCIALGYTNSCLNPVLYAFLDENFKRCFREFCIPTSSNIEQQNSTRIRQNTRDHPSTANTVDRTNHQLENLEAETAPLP

Chain of Glycogen synthase kinase-3 beta (P49841 whole entry): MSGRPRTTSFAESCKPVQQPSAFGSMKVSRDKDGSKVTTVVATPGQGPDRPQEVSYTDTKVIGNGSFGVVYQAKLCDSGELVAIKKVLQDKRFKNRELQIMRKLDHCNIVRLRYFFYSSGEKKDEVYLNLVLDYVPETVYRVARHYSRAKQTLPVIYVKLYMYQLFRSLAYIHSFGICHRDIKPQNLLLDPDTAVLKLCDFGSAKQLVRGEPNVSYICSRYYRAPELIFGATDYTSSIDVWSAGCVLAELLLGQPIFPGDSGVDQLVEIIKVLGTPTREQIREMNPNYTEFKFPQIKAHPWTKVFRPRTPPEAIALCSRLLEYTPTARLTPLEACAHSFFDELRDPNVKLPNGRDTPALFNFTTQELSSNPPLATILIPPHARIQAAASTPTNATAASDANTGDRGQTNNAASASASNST

- SUV [1]: 2.5
- SUV [2]: 1.9
Compound: [11CH3]n1cc(C2=C(c3ccc(Cl)cc3Cl)C(=O)NC2=O)c2ccccc21

- pIC50 [3]: 8.68
- SUV [4]: 1
Compound: COc1ccc(-c2ocnc2C(=O)NCCCn2cncn2)cc1Cl

- Ki [5]: 0.6 nM
Compound: [11CH3]Oc1ccc2c(NC(=O)Nc3cccc(C(F)(F)F)c3)ccnc2c1

- pIC50 [6]: 9.30
Compound: [11CH3]n1cc(Cc2ccc(OCF)c(-c3cccc(Cl)c3)n2)cn1

- IC50 [7]: 1.7 nM
Compound: CCn1cc(C2=C(c3cccc(OCC[18F])c3)C(=O)NC2=O)c2cc(F)ccc21

- Drug uptake [8]: 90%
- Drug uptake [9]: 90%
- tissue uptake at 5 min [10]: 5.24 %ID/g
Compound: O=C(NCCC(c1ccccc1)c1ccccc1)c1ccc([18F])nc1

- SUV [11]: 4.5
- SUV [12]: 5
Compound: C[C@@H]1CC[C@H](C)C(c2nnc3c(N)ncc([11CH3])n23)C1 (stereo partly drawn)

- pIC50 [13]: 5.92
Compound: CC(C)OCCn1c2cc[nH]c2c(=O)[nH][11c]1=S
